The values below come from US7196112B2, “Cell adhesion inhibitors” (Biogen Idec MA Inc., priority 2004, dated 2007).

Read-outs that look alike come from different tables or passages of the source.

Assay [1] deals with T1, α4β1 (Homo sapiens, UniProt P05556+P13612). The experiment in a line: Equilibrium binding on Jurkat cells, competition with 35S-B as reporter.
Description: The α4β1-expressing Jurkat human T-cell line (a gift from S. Burakoff, Dana Farber Cancer Institute, Boston, Mass.), and the α4β7-expressing human B-cell line, JY (American Type Tissue Collection, Rockville, Md.) were maintained in culture at 37° C. in RPMI-1640 medium supplemented with 10% fetal bovine serum (FBS). K562 cell lines transfected with either the human α1-integrin chain (Phil Gotwells, Biogen, Inc) or with the human α2 integrin chain (a gift from M. Hemler, Dana Farber Cancer Institute, Boston, Mass.) were maintained in RPMI-1640 medium supplemented with 10% FBS and 1 mg/mL G418. All cells were periodically monitored for high integrin surface expression by FACS analysis. The binding of the various inhibitors to α4β1 were assessed on Jurkat cells by competition using radioactive ^35S-B as a reporter for a 1 occupancy. Jurkat cells were pelleted by centrifugation, washed two times with TBS (50 mM Tris HCl, 150 mM NaCl, 0.1% bovine serum albumin, 2 mM glucose, 10 mM HEPES pH 7.4), suspended at approximately 2×10^6 cells/mL in TBS, and counted using a Neubauer hemocytometer. The cells were further diluted 2×10^6 cells/mL with TBS containing 1 mM CaCl2 and 1 mM MgCl2 and treated with serial dilutions of test compound for 1 hour, and then 5 nM ^35S-B, an amount sufficient to bind all unoccupied receptors, was added for 10 minutes before measuring the bound counts. The cells were then pelleted by centrifugation, resuspended in 100 μL of TBS plus Mn^2+, and transferred to a scintillation vial containing 2.9 mL of ScintiVerse II (Fisher Scientific). Cell-associated radioactivity was quantified by scintillation counting. All studies were performed in siliconized 1.5 mL eppendorf tubes with a standard 1 mL sample volume. Each condition was tested in at least two independent studies. Non-specific binding of ^35S-B to cells was assessed at each cell density and ^35S-B concentration in TBS but in the absence of added metal ion. Specific counts bound were calculated by subtracting non specific counts from total counts bound. Counts bound under these conditions measures integrin that is not occupied by the test compound and is therefore free to bind the ^35S-B. The competition format was also used for kinetic binding studies. Binding and dissociation constants were calculated from α4β1 that remained free to bind the ^35S-B after treatment with test compound.
The affinities of the PEGylated inhibitors for α4β1 were calculated from association and disassociation rate constants using a kinetic analysis. For these studies, Jurkat cells expressing α4β1 (75,000 copies/cell) were treated with the inhibitors and then ^35S-B was added as a probe to detect free α4β1. The levels of bound inhibitor were calculated from a measure of total ^35S-B bound in the absence of added inhibitor and counts bound following inhibitor treatment. […] IC50 values were calculated from equilibrium binding studies on Jurkat cells through competition using ^35S-B as a reporter in buffer containing 1 mM Ca^2+ and 1 mM Mg^2+.
Second, the effect of protein binding on the affinity of the PEGylated inhibitors for α4β1 on Jurkat cells was evaluated from equilibrium binding measurements.
The target of assay [2] is T1, α4β1. The assay is described as follows: Kinetic binding to α4β1 on Jurkat cells, competition with 35S-B as probe for free α4β1. Also on record: endogenous in cells; host or cells: Jurkat human T-cell line. The following applies: for Kd: calculated from on- and off-rate constants; for koff: read-out: koff/10^−4; for kon: read-out: kon/10^6.
Description: All cells were periodically monitored for high integrin surface expression by FACS analysis. The binding of the various inhibitors to α4β1 were assessed on Jurkat cells by competition using radioactive ^35S-B as a reporter for a 1 occupancy. Jurkat cells were pelleted by centrifugation, washed two times with TBS (50 mM Tris HCl, 150 mM NaCl, 0.1% bovine serum albumin, 2 mM glucose, 10 mM HEPES pH 7.4), suspended at approximately 2×10^6 cells/mL in TBS, and counted using a Neubauer hemocytometer. The cells were further diluted 2×10^6 cells/mL with TBS containing 1 mM CaCl2 and 1 mM MgCl2 and treated with serial dilutions of test compound for 1 hour, and then 5 nM ^35S-B, an amount sufficient to bind all unoccupied receptors, was added for 10 minutes before measuring the bound counts. The cells were then pelleted by centrifugation, resuspended in 100 μL of TBS plus Mn^2+, and transferred to a scintillation vial containing 2.9 mL of ScintiVerse II (Fisher Scientific). Cell-associated radioactivity was quantified by scintillation counting. All studies were performed in siliconized 1.5 mL eppendorf tubes with a standard 1 mL sample volume. Each condition was tested in at least two independent studies. Non-specific binding of ^35S-B to cells was assessed at each cell density and ^35S-B concentration in TBS but in the absence of added metal ion. Specific counts bound were calculated by subtracting non specific counts from total counts bound. Counts bound under these conditions measures integrin that is not occupied by the test compound and is therefore free to bind the ^35S-B. The competition format was also used for kinetic binding studies. Binding and dissociation constants were calculated from α4β1 that remained free to bind the ^35S-B after treatment with test compound.
The affinities of the PEGylated inhibitors for α4β1 were calculated from association and disassociation rate constants using a kinetic analysis. For these studies, Jurkat cells expressing α4β1 (75,000 copies/cell) were treated with the inhibitors and then ^35S-B was added as a probe to detect free α4β1. The levels of bound inhibitor were calculated from a measure of total ^35S-B bound in the absence of added inhibitor and counts bound following inhibitor treatment.
Assay [3] addresses T1, α4β1. The experiment in a line: VCAM-Ig direct binding assay (DBA), Jurkat cells.
Excerpt: A direct binding assay may also be employed to quantitate the inhibitory activity of the compounds. In this assay, a VCAM-IgG fusion protein containing the first two immunoglobulin domains of VCAM (D1D2) attached above the hinge region of an IgG1 molecule (“VCAM 2D-IgG”), is conjugated to a marker enzyme, such as alkaline phosphatase (“AP”). […] The conjugation of that fusion to a marker enzyme is achieved by cross-linking methods well-known in the art.
The VCAM-IgG enzyme conjugate is then placed in the wells of a multi-well filtration plate, such as that contained in the Millipore Multiscreen Assay System (Millipore Corp., Bedford, Mass.). Varying concentrations of the test inhibitory compound are then added to the wells followed by addition of VLA-4-expressing cells. The cells, compound and VCAM-IgG enzyme conjugate are mixed together and allowed to incubate at room temperature. Following incubation, the wells are vacuum drained, leaving behind the cells and any bound VCAM. Quantitation of bound VCAM is determined by adding an appropriate calorimetric substrate for the enzyme conjugated to VCAM-IgG and determining the amount of reaction product. Decreased reaction product indicates increased binding inhibitory activity.
Samples were also evaluated for function using the VCAM-Ig direct binding assay. Details for the construction of the VCAM-Ig animal cell expression vector, the generation of a Chinese hamster ovary (CHO) cell line expressing VCAM-Ig, conjugation of the VCAM-Ig to alkaline phosphatase, and the development of a direct binding assay for characterizing α4β1 and α4β7 binding to VCAM-Ig were as previously described (see Lobb, R. R., et al. (1995) Cell Adhes. Commun. 3:385–397).
For these studies, a series of compounds based on compound E containing 0.35, 2, 5, 20, 30, and 50 kDa-mPEG was synthesized and tested for binding to α4β1 on Jurkat cells with VCAM-Ig as a reporter (see methods).
The mark [4] stands for this setting: IC50, buffer with 1 mM Ca2+ and 1 mM Mg2+, no plasma.

The IC50 is the concentration that inhibits the measured activity by half. The term Kd denotes the free concentration of one partner at which half of the binding sites on the other are occupied at equilibrium, for simple one-to-one binding.

T1 sequence (P13612 34-1032): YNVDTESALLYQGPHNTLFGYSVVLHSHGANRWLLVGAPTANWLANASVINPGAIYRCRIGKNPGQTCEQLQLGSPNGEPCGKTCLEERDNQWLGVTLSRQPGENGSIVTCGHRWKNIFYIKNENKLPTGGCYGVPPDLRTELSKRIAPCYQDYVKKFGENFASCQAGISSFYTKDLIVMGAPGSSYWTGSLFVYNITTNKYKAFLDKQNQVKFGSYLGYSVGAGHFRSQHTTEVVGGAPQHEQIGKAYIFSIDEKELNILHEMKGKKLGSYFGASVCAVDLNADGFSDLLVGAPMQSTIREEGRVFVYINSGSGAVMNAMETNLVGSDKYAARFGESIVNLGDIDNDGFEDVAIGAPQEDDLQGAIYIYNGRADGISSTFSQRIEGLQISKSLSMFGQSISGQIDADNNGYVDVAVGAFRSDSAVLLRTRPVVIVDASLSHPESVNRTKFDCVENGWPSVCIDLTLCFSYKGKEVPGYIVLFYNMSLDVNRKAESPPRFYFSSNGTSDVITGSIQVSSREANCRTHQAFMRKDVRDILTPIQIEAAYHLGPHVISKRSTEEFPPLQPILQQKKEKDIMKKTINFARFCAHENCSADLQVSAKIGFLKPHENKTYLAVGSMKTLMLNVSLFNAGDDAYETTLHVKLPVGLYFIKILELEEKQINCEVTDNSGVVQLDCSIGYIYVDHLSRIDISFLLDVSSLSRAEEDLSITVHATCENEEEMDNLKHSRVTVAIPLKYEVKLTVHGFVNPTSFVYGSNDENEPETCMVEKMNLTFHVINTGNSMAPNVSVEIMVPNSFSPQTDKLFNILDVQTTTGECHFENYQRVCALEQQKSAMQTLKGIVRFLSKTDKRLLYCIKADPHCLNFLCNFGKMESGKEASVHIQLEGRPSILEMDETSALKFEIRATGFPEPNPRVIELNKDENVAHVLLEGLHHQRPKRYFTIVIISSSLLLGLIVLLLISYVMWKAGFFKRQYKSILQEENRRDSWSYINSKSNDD
T1 sequence (P05556 21-798): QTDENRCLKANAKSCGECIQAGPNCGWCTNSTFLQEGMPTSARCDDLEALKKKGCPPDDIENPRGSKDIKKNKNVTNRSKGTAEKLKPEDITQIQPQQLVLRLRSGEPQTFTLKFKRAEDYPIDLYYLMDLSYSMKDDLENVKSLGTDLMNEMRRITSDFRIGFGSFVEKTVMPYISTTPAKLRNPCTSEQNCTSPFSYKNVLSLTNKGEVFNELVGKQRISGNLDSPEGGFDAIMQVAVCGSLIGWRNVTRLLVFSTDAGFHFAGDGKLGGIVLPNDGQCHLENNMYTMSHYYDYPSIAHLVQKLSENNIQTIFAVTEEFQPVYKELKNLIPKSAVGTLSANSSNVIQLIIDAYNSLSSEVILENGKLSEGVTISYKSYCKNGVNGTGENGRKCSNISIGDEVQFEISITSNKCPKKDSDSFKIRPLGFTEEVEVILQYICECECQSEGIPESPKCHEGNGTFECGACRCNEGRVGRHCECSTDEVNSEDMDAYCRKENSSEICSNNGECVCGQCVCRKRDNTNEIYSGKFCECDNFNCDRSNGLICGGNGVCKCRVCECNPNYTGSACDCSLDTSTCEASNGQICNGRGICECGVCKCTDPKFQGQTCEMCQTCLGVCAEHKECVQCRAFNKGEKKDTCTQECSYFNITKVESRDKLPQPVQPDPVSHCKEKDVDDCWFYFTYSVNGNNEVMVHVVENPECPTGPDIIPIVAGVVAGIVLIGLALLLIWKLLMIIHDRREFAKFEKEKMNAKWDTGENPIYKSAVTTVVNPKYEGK

Compound `Cc1ccccc1NC(=O)Nc1ccc(CC(=O)N(C)C(CC(C)C)C(=O)NCCC(NC(=O)[C@@H]2C[C@H](NC(=O)CCCCCN)CN2S(=O)(=O)c2ccccc2)C(=O)O)cc1` (relative stereo) [D] registered an IC50 at α4β1 [1] (IC50(HP), 100% human plasma) of 7.9 nM. Moreover, the IC50 at α4β1 [1] (setting [4]) amounted to 1.5 nM. On α4β1 [2] (Jurkat cells), the Kd was 0.061 nM. Moreover, on α4β1 [2], the koff was 0.0002 s⁻¹ and the kon was determined as 3.3e+06 M⁻¹ s⁻¹.

`Cc1ccccc1NC(=O)Nc1ccc(CC(=O)N(C)C(CC(C)C)C(=O)NCCC(NC(=O)[C@@H]2C[C@@H](NC(=O)CCCCCN)CN2S(=O)(=O)c2ccccc2)C(=O)O)cc1` (relative stereo) [E] registered an IC50 on α4β1 [1] (IC50(HP), 100% human plasma) of 2.3 nM. The IC50 on α4β1 [1] (setting [4]) stood at 1.4 nM. Besides, the Kd at α4β1 [2] (Jurkat cells) was 0.044 nM. At α4β1 [2], the koff was 0.00011 s⁻¹ and the kon amounted to 2.5e+06 M⁻¹ s⁻¹.

With `Cc1ccccc1NC(=O)Nc1ccc(CC(=O)N(C)[C@@H](CC(C)C)C(=O)NCC[C@H](NC(=O)[C@@H]2C[C@@H](N)CN2S(=O)(=O)c2ccccc2)C(=O)O)cc1` [C], the IC50 at α4β1 [1] (IC50(HP), 100% human plasma) came out at 2.1 nM. The IC50 on α4β1 [1] (setting [4]) amounted to 1.2 nM. Also, on α4β1 [2] (Jurkat cells, 35S-B probe), the koff was found to be 0.00012 s⁻¹ and the kon was determined as 3e+06 M⁻¹ s⁻¹. Further, the Kd at α4β1 [2] (Jurkat cells) was 0.04 nM.

Turning to `Cc1ccccc1NC(=O)Nc1ccc(CC(=O)N(C)[C@@H](CCCCNC(=O)CCCCCN)C(=O)NCC[C@H](NC(=O)[C@@H]2CCCN2S(=O)(=O)c2ccccc2)C(=O)O)cc1` [Compound A, 4-[6-(6-Amino-hexanoylamino)-2(S)-(methyl-{2-[4-(3-o-tolyl-ureido)-phenyl]-acetyl}-amino)-hexanoylamino]-2(S)-[(1-benzenesulfonyl-pyrrolidine-2(S)-carbonyl)-amino]-butyric acid], on α4β1 [1] (IC50(HP), 100% human plasma), the IC50 was 2.1 nM. At α4β1 [1] (setting [4]), the IC50 amounted to 0.35 nM. Moreover, the Kd at α4β1 [2] (Jurkat cells) is 0.25 nM. At α4β1 [2], the koff is 0.00053 s⁻¹ and the kon worked out at 2e+06 M⁻¹ s⁻¹.

Consider `Cc1ccccc1NC(=O)Nc1ccc(CC(=O)N(C)[C@@H](CC(C)C)C(=O)NCC[C@H](NC(=O)[C@@H]2C[C@H](N)CN2S(=O)(=O)c2ccccc2)C(=O)O)cc1` [F], for which the IC50 at α4β1 [1] (IC50(HP), 100% human plasma) stood at 8.7 nM; on α4β1 [1] (setting [4]) it was 3.5 nM. Further, the koff on α4β1 [2] (Jurkat cells, 35S-B probe) is 0.00024 s⁻¹. On α4β1 [2] (Jurkat cells, 35S-B probe), the kon turned out to be 3.4e+06 M⁻¹ s⁻¹. The Kd on α4β1 [2] (Jurkat cells) was 0.07 nM.

With `Cc1ccccc1NC(=O)Nc1ccc(CC(=O)N(C)C(CC(C)C)C(=O)NCCC(NC(=O)C2CC(NC(=O)CCCCCNC(=O)CCCCCCC(=O)NCCCCCC(=O)NC3CC(C(=O)NC(CCNC(=O)C(CC(C)C)N(C)C(=O)Cc4ccc(NC(=O)Nc5ccccc5C)cc4)C(=O)O)N(S(=O)(=O)c4ccccc4)C3)CN2S(=O)(=O)c2ccccc2)C(=O)O)cc1` (stereo not drawn) [Q], on α4β1 [2] (Ca2+Mg2+, 30 min), the “% bound Ca2+Mg2+ 30 min” value stood at 0.1%. The “% bound Mn2+ 60 min” value on α4β1 [2] (Mn2+, 60 min) is reported as 93%. Further, the “DBA 100% rat plasma, % @ 50 nM” value at α4β1 [3] (100% rat plasma, 50 nM) was “(0% @”. The IC50 on α4β1 [3] (read-out: DBA IC50 Ca2+Mg2+, Ca2+Mg2+) was found to be 74 nM; on α4β1 [3] (read-out: DBA IC50 Mn2+, Mn2+), 4.3 nM.
